Reference: patent US20250250292A1, “DELIVERY SYSTEM TO TARGET GRAM-NEGATIVE BACTERIA” (priority 2022, published 2025)

Tested on: MRC5 fibroblast cells
Test: Cel Titer Glo cytotoxicity in MRC5 cells
Format: cell-based
Details: Homo sapiens; Table 1, TPP+ linkers, MRC5 cells, 72-hour incubation
Protocol: In order to facilitate development of the TPP containing antibiotics, a series of TPP linkers were prepared and tested for their toxicity in MRC5 cells. This library of linkers are shown below: The toxicity of these linkers in MRC5 cells after a 72 hour incubation.

Row | SMILES | IC50
1 | O=C(O)CCCCC[P+](c1ccccc1)(c1ccccc1)c1ccccc1 [AP-3-195] | > 90 µM
2 | O=C(O)CC[P+](c1ccccc1)(c1ccccc1)c1ccccc1 [AP-4-8] | > 90 µM
3 | OCCCCCC[P+](c1ccccc1)(c1ccccc1)c1ccccc1 [AP-5-531] | > 90 µM
4 | OCCC[P+](c1ccccc1)(c1ccccc1)c1ccccc1 [AP-7-242] | > 90 µM
5 | CC(C)(O)C[P+](c1ccccc1)(c1ccccc1)c1ccccc1 [AP-7-253] | > 90 µM
6 | OCc1ccc([P+](c2ccccc2)(c2ccccc2)c2ccccc2)cc1 [AP-8-98] | 57.6 µM
7 | O=C(O)c1ccc([P+](c2ccccc2)(c2ccccc2)c2ccccc2)cc1 [AP-8-99-1] | > 90 µM
8 | O=C(OCCOCCO)c1ccc([P+](c2ccccc2)(c2ccccc2)c2ccccc2)cc1 [AP-8-99-2] | > 90 µM
